Reference: publication PMC6934663, “Genomic and functional gene studies suggest a key role of beta-carotene oxygenase 1 like (bco1l) gene in salmon flesh color” (Scientific Reports, 2019)

Molecular target: T1, Bco1l (Salmo salar, UniProt A0A1S2X8G0)
T1 construct: the ssa11 copy is truncated), expressed in carotenoid-producing E. coli XL1-Blue, 528 aa
T1 sequence (A0A1S2X8G0 1-528): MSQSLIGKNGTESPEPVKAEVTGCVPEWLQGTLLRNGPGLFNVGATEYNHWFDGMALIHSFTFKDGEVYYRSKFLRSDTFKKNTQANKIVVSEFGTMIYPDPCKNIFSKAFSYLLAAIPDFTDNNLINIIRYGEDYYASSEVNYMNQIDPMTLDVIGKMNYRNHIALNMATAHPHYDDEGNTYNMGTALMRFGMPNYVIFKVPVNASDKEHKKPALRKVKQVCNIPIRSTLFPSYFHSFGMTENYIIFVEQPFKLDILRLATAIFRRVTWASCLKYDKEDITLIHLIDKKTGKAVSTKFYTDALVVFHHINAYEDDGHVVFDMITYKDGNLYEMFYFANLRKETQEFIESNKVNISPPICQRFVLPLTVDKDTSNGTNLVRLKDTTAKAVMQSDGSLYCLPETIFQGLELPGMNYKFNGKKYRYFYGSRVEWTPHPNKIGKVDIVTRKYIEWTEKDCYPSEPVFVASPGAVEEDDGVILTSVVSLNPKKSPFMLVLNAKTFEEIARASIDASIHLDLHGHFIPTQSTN
Experiment: HPLC of cleavage products in beta-carotene-producing E. coli
Type: cell-based
Conditions: E. coli co-expression, IPTG 0.2 mM, 16 h at 25 °C in darkness; 15,15' oxidative cleavage

Compound: CC1=C(/C=C/C(C)=C/C=C/C(C)=C/C=C/C=C(C)/C=C/C=C(C)/C=C/C2=C(C)CCCC2(C)C)C(C)(C)CCC1 [beta-carotene]
- HPLC of cleavage products in beta-carotene-producing E. coli: The results showed that Bco1l cleaved beta-carotene (Fig. 6A).
